Reference: US20240398781A1, “SPIROCYCLIC CYCLIC MODULATORS OF CHOLESTEROL BIOSYNTHESIS AND THEIR USE FOR PROMOTING REMYELINATION” (GENENTECH, INC., priority 2021, published 2024)
pEC50, pKi: −log10 of the molar value.

Experiments:
[1] = test system: EBP (zymostenol accumulation in EpiSC-derived OPCs); experiment: GC/MS-based sterol profiling, zymostenol accumulation in OPCs; type: cell-based, mouse; conditions: Mus musculus, 24 h, EpiSC-derived OPCs, 24 hr treatment, 8 doses from 0.15 nM to 333 nM; read-out: Zymostenol GCMS EC50
In short: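 EpiSC-derived OPCs (100,000/well) were treated 24 h in N2B27 without growth factors. Sterols were TMS-derivatized and analysed by GC/MS full-scan EI, quantified against cholesterol-d7. Zymostenol was normalized to the level after 24 h with 100 nM positive control reference.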

human EBP = human EBP (Homo sapiens (Human), UniProt Q15125); experiment: Competition binding assay (SPA, [3H]-Ifenprodil) to determine compound affinity to EBP; conditions: [3H]-Ifenprodil 10 nM, HEK293 membrane overexpressing human EBP, Ki=IC50/(1+[L]/Kd); read-out: hEBP SPA Ki
Chain of human EBP (Q15125 whole entry): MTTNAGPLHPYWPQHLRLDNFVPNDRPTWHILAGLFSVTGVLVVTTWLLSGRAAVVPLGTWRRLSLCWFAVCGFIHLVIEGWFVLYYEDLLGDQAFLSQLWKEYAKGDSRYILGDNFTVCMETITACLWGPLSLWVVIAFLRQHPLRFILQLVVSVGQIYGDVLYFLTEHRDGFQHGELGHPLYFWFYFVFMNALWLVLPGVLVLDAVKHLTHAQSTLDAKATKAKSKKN
Method: Membrane preparation: To examine compound binding affinity to EBP, human EBP was overexpressed in human embryonic kidney 293 cells. Cell pellet was lysed in 10 times weight binding buffer (50 mM Tris, 5 mM MgCl2, 0.1 mM EDTA, lx protease inhibitor cocktail, pH 7.5) on ice by using a dounce homogenizer. The solution was centrifuged at 25,000 g for 50 min at 4° C. The membrane pellet was re-suspended in binding buffer and run through a 25 5/8 gauge needle. After checking the concentration by Bradford assay, the whole cell membrane solution was adjusted to 20 mg/mL and stored at −80° C.
This binding solution was centrifuged at 400 g for 5 minutes to collect the bead/membrane mixture. After re-suspending the pellet in binding buffer at the same calculated volume with 0.01% BSA (Sigma A1933), the bead/membrane mixture was added in 384-well low-binding surface plate (PerkinElmer Cat #6057480) at 25 μl/well. Radioligand at different concentrations with and without the non-radio-labeled same ligand 5 uM (for nonspecific and total signal, respectively) was added to bring final volume to 50 µl/well with DMSO concentration at 0.1%. At equilibrium (3 hours after ligand addition), radiometric signal CPM was counted by using a Microbeta2 microplate counter (Perkinelmer).
Competition binding assay to determine compound affinity: The same conditions of the radioligand Kd study were used for compound single dose percentage inhibition and equilibrium dissociation constant Ki examinations, except 50 nL compound DMSO stock was pre-added in 384-well low-binding surface plate (PerkinElmer Cat #6057480) by Echo 550 (Labcyte) to reach the final concentration for single dose test at 1 uM, and dose response test from 0.06 nM to 5 uM (8 dose, 5 times dilution). A pre-incubated bead/membrane mixture was added in compound plate at 0.3 mg beads and […] membrane per well. […] At equilibrium (3 hours after ligand addition), radiometric signal was counted as described above. The percentage inhibition of compound at each testing concentration was calculated by normalizing each condition's CPM readout to full block (5 uM non-radiolabeled ligand) and non-block (DMSO) control conditions. Compound binding inhibition IC50 was determined by nonlinear regression fitting of percentage inhibition plot against compound concentration. Compound Ki was calculated from the equation Ki=IC50/(1+[L]/Kd), which [L] was radioligand concentration used in assay. All tests had N bigger or equal to 2.

[2] = target: human emopamil binding protein and human 7-dehydrocholesterol reductase co-expressing cells (hEBP-DHCR7 membrane) (Homo sapiens (Human), UniProt Q15125); experiment: Radioligand filter binding assay on hEBP-DHCR7 membrane; conditions: [3H]-(S)-6-(2-Methyl-3-(6-(trifluoromethyl)pyridin-3-yl)propyl)-2-thia-6-azaspiro[3.4]octane 2,2-dioxide radioligand, HEK293 membrane co-expressing hEBP and hDHCR7
Chain of human emopamil binding protein and human 7-dehydrocholesterol reductase co-expressing cells (hEBP-DHCR7 membrane) (Q15125 whole entry): as above
In short: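 HEK293 cells transiently co-expressing human EBP and DHCR7 supplied whole-cell membranes (10 μg/well), incubated 3 h at 22 °C with [3H]-labelled spiro-octane dioxide ligand (added at 25 nM) and compound (0.06-5000 nM final, 8 doses, n=2). Bound ligand was collected on PEI-treated GF/B filters and counted by scintillation. IC50 was Hill-fitted from % inhibition and reported as Ki.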

EpiSC-derived OPCs = experiment: In vitro phenotypic screening of OPCs (MBP staining, high-content imaging); type: cell-based, mouse; conditions: Mus musculus, 72 h, percentage of MBP+ oligodendrocytes, 3 days, 0.5 nM to 1000 nM; read-out: OPC EC50
In short: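 EpiSC-derived mouse OPCs seeded at 150,000/cm^2 on laminin in N2B27 without growth factors, treated 3 days at 37° C. with compound (8 points, 1000 nM to 0.5 nM). Fixed cells stained for MBP and DAPI and imaged; percentage of MBP+ oligodendrocytes fitted by Hill equation for EC50.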

| Compound | pEC50 [1] | pKi (human EBP) | pKi [2] | pEC50 (EpiSC-derived OPCs) |
| --- | --- | --- | --- | --- |
| Cc1cc(C(F)(F)F)cnc1[C@H]1CC[C@@H](N2CCC3(C2)CS(=O)(=O)C3)CC1 [Compound 47A, 6-((1s,4s)-4-(3-methyl-5-(trifluoromethyl)pyridin-2-yl)cyclohexyl)-2-thia-6-azaspiro[3.4]octane 2,2-dioxide] | 8.04 | 7.96 | 7.96 |  |
| CC(C)n1nc(-c2ccc(C(F)(F)F)nc2)nc1[C@@H]1CC[C@H](N2CCC3(C2)CS(=O)(=O)C3)C1 (single isomer, unassigned) [17A*] | 8.68 | 7.66 | 7.62 |  |
| CC(C)n1nc(C(F)(F)F)cc1[C@@H]1CC[C@@H](N2CCC3(C2)CS(=O)(=O)C3)C1 (single isomer, unassigned) [10D*] | 7.36 | 7.37 | 7.48 |  |
| CC(C)(C)n1nc(C(F)(F)F)cc1[C@H]1CC[C@H](N2CCC3(C2)CS(=O)(=O)C3)CC1 [Compound 73, 6-((1r,4r)-4-(1-(tert-Butyl)-3-(trifluoromethyl)-1H-pyrazol-5-yl)cyclohexyl)-2-thia-6-azaspiro[3.4]octane 2,2-dioxide] | 7.48 |  | 7.68 | 6.96 |
| CC(C)(C)n1nc(C2CC2)nc1[C@H]1CC[C@@H](N2CCC3(C2)CS(=O)(=O)C3)C1 [Compound 74B, 6-((1R,3S)-3-(1-(tert-butyl)-3-cyclopropyl-1H-1,2,4-triazol-5-yl)cyclopentyl)-2-thia-6-azaspiro[3.4]octane 2,2-dioxide] | 7.77 |  | 6.31 | 7.12 |
| O=S1(=O)CC[C@@]2(CCCN([C@H]3CC[C@@H](c4cc(C(F)(F)F)nn4C4CC4)CC3)C2)C1 (single isomer, unassigned) [69A*] | 8.68 |  | 7.62 | 8.12 |
| O=S1(=O)CC2(CCN([C@@H]3CC[C@H](c4ccc(C(F)(F)F)cc4)C3)C2)C1 [Compound 1C, 6-((1R,3S)-3-(4-(trifluoromethyl)phenyl)cyclopentyl)-2-thia-6-azaspiro[3.4]octane 2,2-dioxide] | 8.85 |  | 7.96 | 8.74 |
| O=S1(=O)CC2(CCN([C@H]3CCC[C@@H](c4ccc(C(F)(F)F)nc4)C3)CC2)C1 (single isomer, unassigned) [56C*] | 7.72 |  | 6.85 | 7.12 |
| CC(C)n1nc(-c2ccc(C(F)(F)F)cc2)nc1[C@H]1CCC(N2CCC3(CC2)CS(=O)(=O)C3)C1 (stereo in doubt) [Compound 58A, 7-((1R,3S)-3-(1-Isopropyl-3-(4-(trifluoromethyl)phenyl)-1H-1,2,4-triazol-5-yl)cyclopentyl)-2-thia-7-azaspiro[3.5]nonane 2,2-dioxide] | 8.36 |  | 7.66 | 8.14 |
| O=S1(=O)CCC2(CCN([C@H]3CC[C@H](c4ccc(C(F)(F)F)nc4)CC3)C2)CC1 [Compound 95A, 2-((1r,4r)-4-(6-(Trifluoromethyl)pyridin-3-yl)cyclohexyl)-8-thia-2-azaspiro[4.5]decane 8,8-dioxide] | 6.77 |  | 6.15 | 6.28 |
| O=S1(=O)CC2(CCCN([C@H]3CC[C@H](c4ccc(C(F)(F)F)nc4)CC3)C2)C1 [Compound 79, 6-((1r,4r)-4-(6-(Trifluoromethyl)pyridin-3-yl)cyclohexyl)-2-thia-6-azaspiro[3.5]nonane 2,2-dioxide] | 8.01 |  | 7.66 | 7.44 |
| CC(C)n1nc(-c2ccc(C(F)(F)F)cc2)nc1[C@H]1CC[C@H](N2CCC3(C2)CS(=O)(=O)C3)C1 (single isomer, unassigned) [53A*] | 8.92 |  | 7.92 | 8.64 |
| O=S1(=O)CC2(CCN([C@@H]3CCCN(c4ccc(C(F)(F)F)cc4)C3)CC2)C1 (single isomer, unassigned) [55A*] | 8.64 |  | 8.55 | 7.82 |
| O=S1(=O)CC2(CCN([C@H]3CC[C@@H](c4ccc(F)c(F)c4)CC3)CC2)C1 [Compound 77B, 7-((1s,4s)-4-(3,4-difluorophenyl)cyclohexyl)-2-thia-7-azaspiro[3.5]nonane 2,2-dioxide] | 8.30 |  | 8.10 | 7.82 |
| O=S1(=O)CC2(CCN([C@H]3CC[C@H](c4cc(C(F)(F)F)ncc4Cl)CC3)C2)C1 [Compound 87, 6-((1r,4r)-4-(5-Chloro-2-(trifluoromethyl)pyridin-4-yl)cyclohexyl)-2-thia-6-azaspiro[3.4]octane 2,2-dioxide] | 8.06 |  | 7.92 | 7.48 |
| O=S1(=O)CCC2(CCN([C@H]3CC[C@@H](c4ccc(C(F)(F)F)nc4)CC3)C2)CC1 [Compound 95B, 2-((1s,4s)-4-(6-(trifluoromethyl)pyridin-3-yl)cyclohexyl)-8-thia-2-azaspiro[4.5]decane 8,8-dioxide] | 7.66 |  | 6.77 | 7.37 |
| CC(C)n1nc(C(F)(F)F)cc1[C@@H]1CCC[C@H](N2CCC3(CC2)CS(=O)(=O)C3)C1 (single isomer, unassigned) [78B*] | 7.66 |  | 7.59 | 6.85 |
| O=S1(=O)CC2(CCN([C@H]3CC[C@@H](c4ccc(C(F)(F)F)nc4)CC3)CC2)C1 [81B*, 7-((1s,4s)-4-(6-(Trifluoromethyl)pyridin-3-yl)cyclohexyl)-2-thia-7-azaspiro[3.5]nonane 2,2-dioxide] | 7.38 |  | 6.33 | 6.57 |
| O=S1(=O)CCC2(CCN([C@H]3CC[C@H](c4ccc(C(F)(F)F)cn4)CC3)C2)CC1 [84B*, 2-((1s,4s)-4-(5-(Trifluoromethyl)pyridin-2-yl)cyclohexyl)-8-thia-2-azaspiro[4.5]decane 8,8-dioxide] | 7.57 |  | 7.16 | 6.89 |
| O=S1(=O)CC2(CCN([C@H]3CC[C@H](c4ccc(F)c(F)c4)CC3)CC2)C1 [Compound 77A, 7-((1r,4r)-4-(3,4-Difluorophenyl)cyclohexyl)-2-thia-7-azaspiro[3.5]nonane 2,2-dioxide] | 8.24 |  | 7.48 | 7.89 |
| CC(C)n1nc(-c2cccc(C(F)(F)F)n2)cc1[C@H]1CC[C@@H](N2CCC3(CC2)CS(=O)(=O)C3)C1 (single isomer, unassigned) [46C*] | 8.77 |  | 7.89 | 8.28 |
| CC(C)n1nc(-c2ccc(C(F)(F)F)nc2)nc1[C@@H]1CC[C@@H](N2CCC3(C2)CS(=O)(=O)C3)C1 (single isomer, unassigned) [17C*] | 8.54 | 7.74 |  | 7.89 |
| O=S1(=O)CC2(CCN([C@@H]3CC[C@H](c4ccc(C(F)(F)F)nc4)C3)CC2)C1 (single isomer, unassigned) [57C*] | 7.80 |  | 6.92 | 7.28 |
| CC(C)n1nc(-c2cccc(C(F)(F)F)n2)cc1[C@H]1CC[C@H](N2CCC3(CC2)CS(=O)(=O)C3)C1 (single isomer, unassigned) [46D*] | 8.96 |  | 7.92 | 8.62 |
